# Test results from publication PMC7525093, “Bis-Quinolinium Cyclophane Blockers of SK Potassium Channels Are Antagonists of M3 Muscarinic Acetylcholine Receptors” (Frontiers in Pharmacology, 2020).
# Where two headings read alike, the source gives them in different places.
# Columns and labels:
# [1] = target: T1, human M3 muscarinic acetylcholine receptor (Homo sapiens, UniProt P20309); assay: R-CEPIAer ER calcium assay of Gq-coupled receptor activation, M3-transfected CHO-K1 cells; format: cell-based
# T1 construct: host or cells: CHO-K1 cells, stably transfected
# Method: (§1) The binding of antagonists to Gq-coupled receptors was determined by measuring IP3-mediated calcium depletion from the endoplasmic reticulum (ER). This was accomplished using CHO-K1 cells stably transfected with human M3 muscarinic acetylcholine receptor (CEM3000000, cDNA Resource Center, Bloomsburg University) and R-CEPIAer, a low affinity ER-targeted calcium indicator fluorescent protein ([Suzuki et al., 2014]). R-CEPIAer reporting of ER calcium concentration was assessed using 564 nm excitation light (>590 long-pass emission) at 20 second intervals on a Nikon swept-field confocal microscope using slit-scan mode, 2x2 Binning, and 100 millisecond frames. F/Fmax was fluorescence intensity normalized to maximal fluorescence intensity during the experiment. The response of cells to Gq-coupled receptor agonist were measured as the change in F/Fmax (ΔF/Fmax) from preagonist value to fluorescence minimum during agonist application (that occurs by IP3-mediated ER calcium depletion). […] Perfusion of each agonist application was for 2 min, while the antagonist overlapped and preceded the second agonist application by 3 min. […] IC50 was calculated by assaying fractional inhibition using a dose-response of antagonist concentrations (i.e. Figure 1D ). For assays of other receptors such as the M1 and M5 muscarinic receptors, H1 histamine and P2Y1 purinergic receptors, these receptors were transiently co-transfected with the pCMV R-CEPIAer plasmid (a gift from Masamitsu Iino (Addgene plasmid # 58216; http://n2t.net/addgene:58216; RRID : Addgene_58216)) into CHO cells using polyethylenimine [according to previous methods ([Longo et al., 2013])]. IC50 and EC50 values were estimated by fitting the dose-response relationship to a Hill equation.
# To obtain a pKB using a Schild analysis ([Arunlakshana and Schild, 1959]), the acetylcholine EC50 was measured in the absence of UCL1684 and EC50′ measured in the presence of increasing concentrations of UCL1684. These values were used to calculate a dose ratio (DR = EC50′/EC50) for each UCL1684 concentration. The log(DR − 1) was plotted vs. log UCL1684 concentrations and fit to a linear equation where the theoretical X-intercept was used to estimate a pKB.
# [2] = target: T2, human P2Y1 purinergic receptor (Homo sapiens, UniProt P47900); assay: R-CEPIAer ER calcium assay, CHO cells co-transfected with P2Y1 receptor; format: cell-based; conditions: 5 μM UCL 1684, 1 μM ATP, read-out: Fractional inhibition of second ATP response
# T2 construct: expressed in transfected cells; host or cells: CHO cells, transiently co-transfected with pCMV R-CEPIAer
# Method: [Worded in the source for another target; used here, by the source, with some conditions changed.] as §1, with “For assays of other receptors such as the M1 and M5 muscarinic receptors, H1 histamine and P2Y1 purinergic receptors, these receptors were transiently co-transfected with the pCMV R-CEPIAer plasmid (a gift from Masamitsu Iino (Addgene plasmid # 58216; http://n2t.net/addgene:58216; RRID : Addgene_58216)) into CHO cells using polyethylenimine [according to previous methods ([Longo et al., 2013])]. IC50 and EC50 values were estimated by fitting the dose-response relationship to a Hill equation.” left out
# M3 mACHR = target: T3, M3 mACHR (Homo sapiens, UniProt P20309); assay: [3H]-NMS competition binding, M3 mACHR-expressing CHO cell membranes; conditions: 0.9 nM [3H]-NMS
# T3 construct: expressed in transfected cells; host or cells: membranes of M3 mACHR-expressing CHO cells
# Method: Competition binding assays were done with [^3H]-N-methyl-scopolamine ([3H]-NMS, PerkinElmer) essentially as described ([Steinfeld et al., 2010]) with minor modifications. Membrane homogenates were prepared in HEPES assay buffer (20 mM HEPES, 100 mM NaCl, and 10 mM MgCl, pH 7.4) by trituration on ice through a 26-gauge needle followed by centrifugation at 39,000g in Sorval RC-6+ centrifuge. Membranes were resuspended in assay buffer and protein concentration determined by the method of Bradford using bovine serum albumin as a standard ([Bradford, 1976]). Membranes (25 µg) were incubated along with 0.9 nM ^3H- NMS without or with UCL1684 concentrations (10^-11M to 10^-4M in triplicate) for 120 min at 30°C in 96 multiwell GF/C filter plates (MilliporeSigma) coated with 0.3% polyethyleneimine (Sigma). The assay was terminated by rapid filtration using a MilliporeSigma vacuum manifold followed by three washes with ice-cold wash buffer (20mM HEPES, pH 7.4). Filters were removed and placed in 7 ml scintillation vials containing 5 ml scintillation fluid (National Diagnostics) and radioactivity counted using a Beckman LS-6500 ß-counter. Nonspecific binding was defined by 100 µM atropine. […]
# SK2 = target: SK2; parameters: method as in Benton D.C. et al., 2013; conditions: 125I-Apamin competition; ref Benton D.C. et al., 2013; read-out: Ki, SK2 channels; cited from earlier work
# T1 sequence (P20309 whole entry): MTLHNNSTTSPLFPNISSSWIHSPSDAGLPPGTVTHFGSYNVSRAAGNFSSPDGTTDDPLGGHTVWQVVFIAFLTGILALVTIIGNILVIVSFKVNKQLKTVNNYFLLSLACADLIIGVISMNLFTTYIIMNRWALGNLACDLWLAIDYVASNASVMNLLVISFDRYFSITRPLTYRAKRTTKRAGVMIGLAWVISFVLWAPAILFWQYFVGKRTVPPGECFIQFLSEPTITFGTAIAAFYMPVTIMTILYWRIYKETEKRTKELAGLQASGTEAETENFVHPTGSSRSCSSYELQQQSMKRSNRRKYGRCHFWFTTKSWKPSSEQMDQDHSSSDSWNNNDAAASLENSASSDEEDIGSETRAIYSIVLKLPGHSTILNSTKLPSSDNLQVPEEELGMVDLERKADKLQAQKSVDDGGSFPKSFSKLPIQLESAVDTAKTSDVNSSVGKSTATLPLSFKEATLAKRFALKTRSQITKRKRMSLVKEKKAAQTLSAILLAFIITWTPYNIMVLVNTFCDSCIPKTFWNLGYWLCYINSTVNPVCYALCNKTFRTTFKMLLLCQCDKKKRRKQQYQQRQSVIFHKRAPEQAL
# T3 sequence (P20309 whole entry): as above
# T2 sequence (P47900 whole entry): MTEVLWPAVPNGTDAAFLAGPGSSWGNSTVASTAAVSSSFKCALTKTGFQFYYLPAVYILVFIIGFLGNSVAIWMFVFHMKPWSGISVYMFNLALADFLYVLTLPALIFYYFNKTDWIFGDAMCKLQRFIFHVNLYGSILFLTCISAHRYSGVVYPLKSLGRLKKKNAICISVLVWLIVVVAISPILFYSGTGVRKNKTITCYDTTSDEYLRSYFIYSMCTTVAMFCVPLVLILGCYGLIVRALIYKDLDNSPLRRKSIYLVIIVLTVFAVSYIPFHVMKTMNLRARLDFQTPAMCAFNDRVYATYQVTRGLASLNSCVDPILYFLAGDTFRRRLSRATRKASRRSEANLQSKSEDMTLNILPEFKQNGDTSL
smiles,measurement,setting,value
"c1cc2cc(c1)C[n+]1ccc(c3ccccc31)NCc1ccc(cc1)CNc1cc[n+](c3ccccc13)C2 [UCL 1684, 6,12,19,20,25,26-Hexahydro-5,27:13,18:21,24-trietheno-11,7-metheno-7H-dibenzo [b,n] [1,5,12,16]tetraazacyclotricosine-5,13-diium dibromide]",IC50,[1],1500 nM
same,Nature of antagonism at M3 receptors,[1],competitive antagonist
same,"Hill slope of inhibition curve, M3 receptor","[1]; 0.5 μM carbachol, Hill equation fit",1.8 ± 0.29
same,Fractional inhibition of second carbachol response,"[1]; 5 μM antagonist, 0.5 μM carbachol, 0 = none, 1 = complete inhibition",0.99
same,Schild plot slope,[1]; linear regression of log(DR-1) vs log UCL1684,0.94
same,Kb,[1]; read-out: Ki / KB from Schild analysis,155 nM
same,inhibition at 5 µM,[2],6.7 ± 6%
same,Ki,"M3 mACHR; n=3 separate experiments, read-out: Average Ki, competition binding",909 nM
same,Ki,"M3 mACHR; single experiment shown, read-out: pKi, representative binding experiment (converted)",1120 nM
same,Ki,SK2,1 nM
